From patent US10913727B2, “Modulators of the integrated stress pathway” (Calico Life Sciences LLC, priority 2016, dated 2021)

System: HEK293T cells carrying the ATF4 luciferase reporter
Assay: ATF4-Luc assay, in vitro model of Vanishing Cell White Matter Disease (VWMD)
Format: cell-based
Settings: Homo sapiens, HEK-293T, 1 μg/mL tunicamycin, 7 hours, One Glo luminescence
Method in brief: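 Reporter cells were stably generated by retroviral transduction and puromycin selection, then seeded at 30,000 cells/well. Next day, cells received 1 μg/mL tunicamycin with 200 nM test compound for 7 h, and luciferase luminescence was read with a one-step reagent. Values reported as EC50.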

With `O=C(COc1ccc(Cl)c(F)c1)NC12CCC(NC(=O)c3cc(C(F)F)no3)(CC1)C[C@@H]2O` [Compound 671, N-{(3S)-4-[2-(4-chloro-3-fluorophenoxy)acetamido]-3-hydroxybicyclo[2.2.2]octan-1-yl}-3-(difluoromethyl)-1,2-oxazole-5-carboxamide] as the compound, how does the EC50 read?
The EC50 was under 50 nM.

`O=C(COc1ccc(Cl)c(F)c1)NC12CC(Nc3nccn4ncnc34)(C1)C2` [Compound 448, 2-(4-chloro-3-fluorophenoxy)-N-{3-[([1,2,4]triazolo[1,5-a]pyrazin-8-yl)amino]bicyclo[1.1.1]pentan-1-yl}acetamide] was tested. Which EC50 did it give?
Its EC50 is 1000 to 2000 nM.

With `Cn1nccc1C(=O)NC12CC(NC(=O)COc3ccc(Cl)c(F)c3)(C1)C2` [Compound 388, N-{3-[2-(4-chloro-3-fluorophenoxy)acetamido]bicyclo[1.1.1]pentan-1-yl}-1-methyl-1H-pyrazole-5-carboxamide] as the compound, how does the EC50 read?
The EC50 was 250 to 1000 nM.

With `O=C(COc1ccc(Cl)c(F)c1)NC12CCC(NC(=O)c3cnc(C(F)(F)F)s3)(C1)C2` [Compound 647, N-{4-[2-(4-chloro-3-fluorophenoxy)acetamido]bicyclo[2.1.1]hexan-1-yl}-2-(trifluoromethyl)-1,3-thiazole-5-carboxamide] as the compound, how does the EC50 read?
The EC50 was 250 to 1000 nM.

Which EC50 does the source give for `O=C(COc1ccc(Cl)c(F)c1)NC12CC(NC(=O)c3cnc(C4CC4)nc3)(C1)C2` [Compound 888, N-{3-[2-(4-chloro-3-fluorophenoxy)acetamido]bicyclo[1.1.1]pentan-1-yl}-2-cyclopropylpyrimidine-5-carboxamide] here?
The EC50 was 50 to 250 nM.

`Cc1oncc1C(=O)NC12CC(NC(=O)COc3ccc(Cl)c(F)c3)(C1)C2` [Compound 908, N-{3-[2-(4-chloro-3-fluorophenoxy)acetamido]bicyclo[1.1.1]pentan-1-yl}-5-methyl-1,2-oxazole-4-carboxamide] was tested. Which EC50 did it give?
The EC50 was over 2000 nM.

For `C[S+]([O-])c1ccccc1C(=O)NC12CC(NC(=O)COc3ccc(Cl)c(F)c3)(C1)C2` (stereo not shown) [Compound 858, N-{3-[2-(4-chloro-3-fluorophenoxy)acetamido]bicyclo[1.1.1]pentan-1-yl}-2-(methanesulfinyl)benzamide], which EC50 is on record?
The EC50 was 1000 to 2000 nM.

`Cc1cc(C(=O)NC23CCC(NC(=O)COc4ccc(F)c(F)c4)(CC2)C(O)C3)on1` (stereo not shown) [Compound 462, N-{4-[2-(3,4-difluorophenoxy)acetamido]-3-hydroxybicyclo[2.2.2]octan-1-yl}-3-methyl-1,2-oxazole-5-carboxamide] was tested. Which EC50 did it give?
The EC50 was 250 to 1000 nM.

With `O=C(COc1ccc(Cl)c(F)c1)NC12CC(Nc3nnc(-c4ccc(Cl)cc4)o3)(C1)C2` [Compound 421, 2-(4-chloro-3-fluorophenoxy)-N-(3-{[5-(4-chlorophenyl)-1,3,4-oxadiazol-2-yl]amino}bicyclo[1.1.1]pentan-1-yl)acetamide] as the compound, how does the EC50 read?
Its EC50 is 250 to 1000 nM.

With `CC(=O)Nc1cccc(C(=O)NC23CC(NC(=O)COc4ccc(Cl)c(F)c4)(C2)C3)n1` [Compound 884, 6-acetamido-N-{3-[2-(4-chloro-3-fluorophenoxy)acetamido]bicyclo[1.1.1]pentan-1-yl}pyridine-2-carboxamide] as the compound, how does the EC50 read?
The EC50 was 250 to 1000 nM.

How did the EC50 turn out when `O=C(COc1ccc(Cl)c(F)c1)NC12CC(NC(=O)c3cnoc3C3CC3)(C1)C2` [Compound 900, N-{3-[2-(4-chloro-3-fluorophenoxy)acetamido]bicyclo[1.1.1]pentan-1-yl}-5-cyclopropyl-1,2-oxazole-4-carboxamide] was run?
The EC50 was over 2000 nM.

How did the EC50 turn out when `O=C(COc1ccc(Cl)c(Cl)c1)NC12CC(NC(=O)c3csc(C(F)(F)F)n3)(C1)C2` [Compound 676, N-{3-[2-(3,4-dichlorophenoxy)acetamido]bicyclo[1.1.1]pentan-1-yl}-2-(trifluoromethyl)-1,3-thiazole-4-carboxamide] was run?
Its EC50 is under 50 nM.

For `COc1ccnc(C(=O)NC23CCC(NC(=O)COc4ccc(Cl)c(F)c4)(CC2)C(O)C3)c1` (stereo not shown) [Compound 924, N-{4-[2-(4-chloro-3-fluorophenoxy)acetamido]-3-hydroxybicyclo[2.2.2]octan-1-yl}-4-methoxypyridine-2-carboxamide], which EC50 is on record?
Its EC50 is over 2000 nM.

How did the EC50 turn out when `O=C(COc1ccc(Cl)c(F)c1)NC12CCC(NC(=O)c3cnc(C(F)F)cn3)(CC1)C(F)C2` (stereo not shown) [Compound 373, N-{4-[2-(4-chloro-3-fluorophenoxy)acetamido]-2-fluorobicyclo[2.2.2]octan-1-yl}-5-(difluoromethyl)pyrazine-2-carboxamide] was run?
Its EC50 is 250 to 1000 nM.

For `O=C(COc1ccc(Cl)c(F)c1)NC12CCC(NC(=O)c3cnc(C(F)F)cn3)(CC1)[C@@H](O)C2` (single isomer, unassigned) [Compound 236], which EC50 is on record?
The EC50 was under 50 nM.

With `Cn1ccc(C(=O)NC23CC(NC(=O)COc4ccc(Cl)c(Cl)c4)(C2)C3)n1` [Compound 713, N-{3-[2-(3,4-dichlorophenoxy)acetamido]bicyclo[1.1.1]pentan-1-yl}-1-methyl-1H-pyrazole-3-carboxamide] as the compound, how does the EC50 read?
Its EC50 is 50 to 250 nM.

How did the EC50 turn out when `O=C(COc1ccc(Cl)c(F)c1)NC12CC(NC(=O)c3cnc(C4=CCOCC4)o3)(C1)C2` [Compound 138, N-{3-[2-(4-chloro-3-fluorophenoxy)acetamido]bicyclo[1.1.1]pentan-1-yl}-2-(3,6-dihydro-2H-pyran-4-yl)-1,3-oxazole-5-carboxamide] was run?
Its EC50 is 50 to 250 nM.

Which EC50 does the source give for `O=C(COc1ccc(Cl)c(F)c1)NC12CC(NC(=O)c3cncc(F)c3)(C1)C2` [Compound 792, N-{3-[2-(4-chloro-3-fluorophenoxy)acetamido]bicyclo[1.1.1]pentan-1-yl}-5-fluoropyridine-3-carboxamide] here?
The EC50 was 250 to 1000 nM.

`COc1ccccc1C(=O)NC12CC(NC(=O)COc3ccc(Cl)c(F)c3)(C1)C2` [Compound 529, N-{3-[2-(4-chloro-3-fluorophenoxy)acetamido]bicyclo[1.1.1]pentan-1-yl}-2-methoxybenzamide] was tested. Which EC50 did it give?
The EC50 was over 2000 nM.

For `Cc1nccn1-c1ccccc1C(=O)NC12CC(NC(=O)COc3ccc(Cl)c(F)c3)(C1)C2` [Compound 883, N-{3-[2-(4-chloro-3-fluorophenoxy)acetamido]bicyclo[1.1.1]pentan-1-yl}-2-(2-methyl-1H-imidazol-1-yl)benzamide], which EC50 is on record?
The EC50 was over 2000 nM.

For `O=C(COc1ccc(Cl)c(F)c1)NC12CC(Nc3nc(Cl)cc4nccn34)(C1)C2` [Compound 428, 2-(4-chloro-3-fluorophenoxy)-N-{3-[(7-chloroimidazo[1,2-c]pyrimidin-5-yl)amino]bicyclo[1.1.1]pentan-1-yl}acetamide], which EC50 is on record?
Its EC50 is 250 to 1000 nM.

Which EC50 does the source give for `O=C(COc1ccc(Cl)c(F)c1)NC12CCC(NC(=O)c3ccsc3)(CC1)CC2O` (stereo not shown) [Compound 591, N-{4-[2-(4-chloro-3-fluorophenoxy)acetamido]-3-hydroxybicyclo[2.2.2]octan-1-yl}thiophene-3-carboxamide] here?
Its EC50 is 50 to 250 nM.

For `O=C1COc2cc(C(=O)NC34CC(NC(=O)COc5ccc(Cl)c(F)c5)(C3)C4)ccc2N1` [Compound 794, N-{3-[2-(4-chloro-3-fluorophenoxy)acetamido]bicyclo[1.1.1]pentan-1-yl}-3-oxo-3,4-dihydro-2H-1,4-benzoxazine-7-carboxamide], which EC50 is on record?
Its EC50 is over 2000 nM.

`Cn1cc2c(NC34CC(NC(=O)COc5ccc(Cl)c(F)c5)(C3)C4)nccc2n1` [Compound 492, 2-(4-chloro-3-fluorophenoxy)-N-{3-[(2-methyl-2H-pyrazolo[4,3-c]pyridin-4-yl)amino]bicyclo[1.1.1]pentan-1-yl}acetamide] was tested. Which EC50 did it give?
Its EC50 is 50 to 250 nM.

With `Cc1noc(C(=O)NC23CCC(NC(=O)COc4ccc(Cl)c(F)c4)(CC2)[C@@H](O)C3)n1` [Compound 575, N-{(3S)-4-[2-(4-chloro-3-fluorophenoxy)acetamido]-3-hydroxybicyclo[2.2.2]octan-1-yl}-3-methyl-1,2,4-oxadiazole-5-carboxamide] as the compound, how does the EC50 read?
The EC50 was under 50 nM.

Which EC50 does the source give for `COc1cc(OC)cc(C(=O)NC23CC(NC(=O)COc4ccc(Cl)c(F)c4)(C2)C3)c1` [Compound 303, N-{3-[2-(4-chloro-3-fluorophenoxy)acetamido]bicyclo[1.1.1]pentan-1-yl}-3,5-dimethoxybenzamide] here?
Its EC50 is 1000 to 2000 nM.

How did the EC50 turn out when `O=C(COc1ccc(Cl)c(F)c1)NC12CC(NC(=O)c3cnc(C4CCC(F)(F)CC4)o3)(C1)C2` [Compound 126, N-{3-[2-(4-chloro-3-fluorophenoxy)acetamido]bicyclo[1.1.1]pentan-1-yl}-2-(4,4-difluorocyclohexyl)-1,3-oxazole-5-carboxamide] was run?
The EC50 was 50 to 250 nM.

With `O=C(COc1ccc(Cl)c(F)c1)NC12CC(NC(=O)c3cc(CO)ccn3)(C1)C2` [Compound 178, N-{3-[2-(4-chloro-3-fluorophenoxy)acetamido]bicyclo[1.1.1]pentan-1-yl}-4-(hydroxymethyl)pyridine-2-carboxamide] as the compound, how does the EC50 read?
The EC50 was 50 to 250 nM.

Which EC50 does the source give for `Cc1nn(C)c(C(=O)NC23CC(NC(=O)COc4ccc(Cl)c(Cl)c4)(C2)C3)c1F` [Compound 500, N-{3-[2-(3,4-dichlorophenoxy)acetamido]bicyclo[1.1.1]pentan-1-yl}-4-fluoro-1,3-dimethyl-1H-pyrazole-5-carboxamide] here?
Its EC50 is under 50 nM.

For `O=C(COc1ccc(Cl)c(F)c1)NC12CC(NC(=O)c3ccno3)(C1)C2` [Compound 311, N-{3-[2-(4-chloro-3-fluorophenoxy)acetamido]bicyclo[1.1.1]pentan-1-yl}-1,2-oxazole-5-carboxamide], which EC50 is on record?
Its EC50 is 1000 to 2000 nM.

`O=C(COc1ccc(Cl)c(F)c1)NC12CC(NC(=O)c3ncc(Cl)cc3F)(C1)C2` [Compound 770, 5-chloro-N-{3-[2-(4-chloro-3-fluorophenoxy)acetamido]bicyclo[1.1.1]pentan-1-yl}-3-fluoropyridine-2-carboxamide] was tested. Which EC50 did it give?
Its EC50 is 1000 to 2000 nM.

With `O=C(COc1ccc(Cl)c(F)c1)NC12CC(NC(=O)c3cc(C(F)(F)F)ccn3)(C1)C2` [Compound 176, N-{3-[2-(4-chloro-3-fluorophenoxy)acetamido]bicyclo[1.1.1]pentan-1-yl}-4-(trifluoromethyl)pyridine-2-carboxamide] as the compound, how does the EC50 read?
Its EC50 is 50 to 250 nM.

How did the EC50 turn out when `O=C(COc1ccc(Cl)c(F)c1)NC12CCC(NC(=O)c3ccccc3C(=O)O)(CC1)CC2O` (stereo not shown) [Compound 656, 2-({4-[2-(4-chloro-3-fluorophenoxy)acetamido]-3-hydroxybicyclo[2.2.2]octan-1-yl}carbamoyl)benzoic acid] was run?
Its EC50 is over 2000 nM.

Which EC50 does the source give for `Cc1oc(C2CC2)cc1C(=O)NC12CC(NC(=O)COc3ccc(Cl)c(F)c3)(C1)C2` [Compound 881, N-{3-[2-(4-chloro-3-fluorophenoxy)acetamido]bicyclo[1.1.1]pentan-1-yl}-5-cyclopropyl-2-methylfuran-3-carboxamide] here?
The EC50 was over 2000 nM.
